The record followed here is ChEMBL document CHEMBL1142122, “Extending the record of meroditerpenes from Cacospongia marine sponges” (2007).

Common to all, as to format: functional
In one experiment the test system is Bacillus subtilis. The experiment can be described thus: Antimicrobial activity against Bacillus subtilis.
In experiment [1] the test system is Staphylococcus epidermidis. The experiment can be described thus: Antimicrobial activity against Staphylococcus epidermidis.
A further experiment has as its system Escherichia coli. The experiment can be described thus: Antimicrobial activity against Escherichia coli.

Molecules are shown by their SMILES. ≈ marks a conversion by molar mass, not a printed value.

A word on the MIC: it is the lowest concentration found to suppress growth. Low readings indicate greater potency, high ones weaker potency. For `CC(C)=CCC[C@@]1(C)CCC[C@]2(C)[C@@H](Cc3cc(C(=O)O)ccc3O)C(C)=CC[C@@H]12` [JASPIC ACID], the minimum inhibitory concentration (MIC) with Bacillus subtilis was more than 400 µg/mL; in experiment [1], 2.5 µg/mL (≈ 6.09 µM); in the experiment on Escherichia coli, more than 400 µg/mL.

On to `C=C(C)CCC[C@@]1(C)CCC[C@@]2(C)[C@H](Cc3cc(C(=O)O)ccc3O)C(=C)CC[C@H]12`, for which the MIC with Bacillus subtilis is more than 400 µg/mL; in experiment [1], 2.5 µg/mL (≈ 6.09 µM); against Escherichia coli, more than 400 µg/mL.

For the compound `CC1=C(CC/C(C)=C/CC/C(C)=C/Cc2cc(O)ccc2O)C(C)(C)CCC1` [JASPAQUINOL], the MIC with Bacillus subtilis is more than 400 µg/mL; in experiment [1], 5 µg/mL (≈ 13.1 µM); in the experiment on Escherichia coli it was more than 400 µg/mL.

`CC1=C(CC/C(C)=C/CC/C(C)=C/Cc2cc(C(=O)O)ccc2O)C(C)(C)CCC1` [CACOSPONGIN D]: the figures for the minimum inhibitory concentration (MIC) (against Bacillus subtilis; in experiment [1]; against Escherichia coli) were more than 400 µg/mL, 20 µg/mL (≈ 48.7 µM) and more than 400 µg/mL, respectively.
